Results taken from patent US20260078158A1, “COMPOSITIONS COMPRISING CXCL10-DERIVED PEPTIDES AND METHODS OF USE THEREOF” (priority 2022, published 2026).
Values after ≈ are worked out from the molar mass of the structure shown. Read-outs that look alike come from different tables or passages of the source. Where a SMILES comes first, the peptide text is derived from it. [ ]: non-standard residue; d: D form.

What was measured:
Enterococcus faecalis = assay: microbe, parasite or virus in culture; assay type: cell-based; conditions: for MIC50 fold change: Enterococcus faecalis (2 isolates)
Enterococcus faecium = assay: microbe, parasite or virus in culture; assay type: cell-based; conditions: for MIC50 fold change: Enterococcus faecium (3 isolates)
[1] = test system: Acinetobacter baumannii-calcoaceticus complex; assay: microbe, parasite or virus in culture; assay type: cell-based; conditions: for MIC50 fold change: Acinetobacter spp. (5 isolates)
Escherichia coli = assay: microbe, parasite or virus in culture; assay type: cell-based; conditions: for MIC50 fold change: Escherichia coli (5 isolates)
[2] = test system: E. cloacae species complex; assay: microbe, parasite or virus in culture; assay type: cell-based, Enterobacter cloacae; conditions: for MIC: Enterobacter cloacae, read-out: MIC; for MIC50 fold change: Enterobacter spp. (5 isolates)
Pseudomonas aeruginosa = assay: microbe, parasite or virus in culture; assay type: cell-based; conditions: for MIC50 fold change: Pseudomonas aeruginosa (5 isolates)
Streptococcus pneumoniae = assay: microbe, parasite or virus in culture; assay type: cell-based
Staphylococcus aureus = assay: microbe, parasite or virus in culture; assay type: cell-based
Klebsiella pneumoniae [3] = assay: microbe, parasite or virus in culture
Klebsiella pneumoniae [4] = conditions: for MIC50 fold change: Klebsiella pneumoniae (5 isolates)

C[C@H]1COc2c(N3CCN(C)CC3)c(F)cc3c(=O)c(C(=O)O)cn1c23 [Levofloxacin, reference compound]
MIC (Enterococcus faecalis; ATCC29212, Enterococcus faecalis ATCC 29212, QC, read-out: MIC): 0.5 mg/L (≈ 1.38 µM)
MIC (Enterococcus faecalis; Enterococcus faecalis, Collection No. 1204777, VRE, read-out: MIC): 32 mg/L (≈ 88.6 µM)
MIC (Enterococcus faecalis; Enterococcus faecalis, Collection No. 1211589, VRE): 32 mg/L (≈ 88.6 µM)
MIC (Enterococcus faecium; Enterococcus faecium, Collection No. 1196024, VRE, read-out: MIC): > 64 mg/L
MIC (Enterococcus faecium; Enterococcus faecium, Collection No. 1208412, VRE): >64 mg/L
MIC (Enterococcus faecium; Enterococcus faecium, Collection No. 1222807, VSE, read-out: MIC): 8 mg/L (≈ 22.1 µM)
MIC ([1]; Acinetobacter, ABC species complex, Collection No. 1204424, non-MDR, read-out: MIC): 0.12 mg/L (≈ 0.332 µM)
MIC ([1]; Acinetobacter, ABC species complex, Collection No. 1208060, non-MDR, read-out: MIC): 0.06 mg/L (≈ 0.166 µM)
MIC ([1]; Acinetobacter, ABC species complex, Collection No. 1215088, MDR, read-out: MIC): 32 mg/L (≈ 88.6 µM)
MIC ([1]; Acinetobacter, ABC species complex, Collection No. 1215098, MDR, read-out: MIC): 16 mg/L (≈ 44.3 µM)
MIC ([1]; Acinetobacter, ABC species complex, Collection No. 1216520, non-MDR, read-out: MIC): 0.25 mg/L (≈ 0.692 µM)
MIC (Escherichia coli; Escherichia coli, ATCC25922, Escherichia coli ATCC 25922, QC, read-out: MIC): 0.015 mg/L (≈ 0.0415 µM)
MIC (Escherichia coli; Escherichia coli, ATCCBAA2452, Escherichia coli ATCC BAA-2452, NDM-1, read-out: MIC): 0.03 mg/L (≈ 0.083 µM)
MIC (Escherichia coli; Escherichia coli, Collection No. 1191008, MDR, ESBL, read-out: MIC): 32 mg/L (≈ 88.6 µM)
MIC (Escherichia coli; Escherichia coli, Collection No. 1231795, MDR, ESBL, read-out: MIC): 8 mg/L (≈ 22.1 µM)
MIC (Escherichia coli; Escherichia coli, Collection No. 1232428, MDR (COL-R), ESBL, read-out: MIC): 8 mg/L (≈ 22.1 µM)
MIC (Escherichia coli; Escherichia coli, Collection No. 1248389, ESBL, read-out: MIC): 8 mg/L (≈ 22.1 µM)
MIC ([2]; B. cloacae species complex, Collection No. 1204419, non-MDR): 0.03 mg/L (≈ 0.083 µM)
MIC ([2]; Collection No. 1230117, non-MDR): 0.015 mg/L (≈ 0.0415 µM)
MIC ([2]; E. cloacae species complex, Collection No. 1197959, non-MDR): 0.25 mg/L (≈ 0.692 µM)
MIC ([2]; E. cloacae species complex, Collection No. 1230601, non-MDR): 0.03 mg/L (≈ 0.083 µM)
MIC ([2]; E. cloacae species complex, Collection No. 1232701, MDR): 8 mg/L (≈ 22.1 µM)
MIC (Pseudomonas aeruginosa; Pseudomonas aeruginosa ATCC 27853, QC): 0.5 mg/L (≈ 1.38 µM)
MIC (Pseudomonas aeruginosa; Pseudomonas aeruginosa, ATCC27853, Pseudomonas aeruginosa ATCC 27853, QC, read-out: MIC): 1 mg/L (≈ 2.77 µM)
MIC (Pseudomonas aeruginosa; Pseudomonas aeruginosa, Collection No. 1190985, non-MDR, read-out: MIC): 0.25 mg/L (≈ 0.692 µM)
MIC (Pseudomonas aeruginosa; Pseudomonas aeruginosa, Collection No. 1202638, MDR, read-out: MIC): 16 mg/L (≈ 44.3 µM)
MIC (Pseudomonas aeruginosa; Pseudomonas aeruginosa, Collection No. 1210081, non-MDR, read-out: MIC): 0.5 mg/L (≈ 1.38 µM)
MIC (Pseudomonas aeruginosa; Pseudomonas aeruginosa, Collection No. 1242554, non-MDR, read-out: MIC): 0.5 mg/L (≈ 1.38 µM)
MIC (Pseudomonas aeruginosa; Pseudomonas aeruginosa, Collection No. 1263496, MDR, read-out: MIC): 0.25 mg/L (≈ 0.692 µM)
MIC (Streptococcus pneumoniae; ATCC49619, Streptococcus pneumoniae ATCC 49619, QC, read-out: MIC): 0.5 mg/L (≈ 1.38 µM)
MIC (Streptococcus pneumoniae; Streptococcus pneumoniae, Collection No. 1200385, PEN-S, read-out: MIC): 1 mg/L (≈ 2.77 µM)
MIC (Streptococcus pneumoniae; Streptococcus pneumoniae, Collection No. 1219456, PEN-R): 1 mg/L (≈ 2.77 µM)
MIC (Streptococcus pneumoniae; Streptococcus pneumoniae, Collection No. 1219876, PEN-R): 1 mg/L (≈ 2.77 µM)
MIC (Streptococcus pneumoniae; Streptococcus pneumoniae, Collection No. 1223661, PEN-R): 1 mg/L (≈ 2.77 µM)
MIC (Streptococcus pneumoniae; Streptococcus pneumoniae, Collection No. 1227224, PEN-S): 1 mg/L (≈ 2.77 µM)
MIC (Staphylococcus aureus; Staphylococcus aureus, MRSA / USA300, Staphylococcus aureus, Collection No. 1124691, MRSA (USA300)/MDR, read-out: MIC): 8 mg/L (≈ 22.1 µM)
MIC (Staphylococcus aureus; Staphylococcus aureus, MRSA, Staphylococcus aureus, Collection No. 1189667, MRSA/MDR, read-out: MIC): > 64 mg/L
MIC (Staphylococcus aureus; Staphylococcus aureus, MRSA, Staphylococcus aureus, Collection No. 1189809, MRSA/MDR, read-out: MIC): 32 mg/L (≈ 88.6 µM)
MIC (Staphylococcus aureus; Staphylococcus aureus, MRSA, Staphylococcus aureus, Collection No. 1190388, MRSA, read-out: MIC): 16 mg/L (≈ 44.3 µM)
MIC (Staphylococcus aureus; Staphylococcus aureus, MRSA, Staphylococcus aureus, Collection No. 1221979, MRSA, read-out: MIC): 1 mg/L (≈ 2.77 µM)
MIC (Klebsiella pneumoniae [3]; ATCC700603, Klebsiella pneumoniae ATCC 700603, ESBL): 1 mg/L (≈ 2.77 µM)
MIC (Klebsiella pneumoniae [3]; BAA1705, Klebsiella pneumoniae ATCC BAA 1705, KPC): 64 mg/L (≈ 177 µM)
MIC (Klebsiella pneumoniae [3]; Collection No. 1230887, non-MDR): 0.06 mg/L (≈ 0.166 µM)
MIC (Klebsiella pneumoniae [3]; Collection No. 1236064, non-MDR): 0.03 mg/L (≈ 0.083 µM)

CC[C@@H](C)[C@@H](NC(=O)[C@@H](CS)NC(=O)[C@@H](CCSC)NC(=O)[C@@H](CS)NC(=O)[C@@H](CCCNC(=N)N)NC(=O)[C@H](NC(=O)[C@H](NC(=O)[C@H](N)CCCNC(=N)N)[C@H](C)O)C(C)C)C(=O)O [P182 A, RTVRCMCI] (H-[dR][dT][dV][dR][dC][dM][dC][dI]-OH; N-terminus and C-terminus assumed)
MIC (Enterococcus faecalis): 8 mg/L (≈ 8.15 µM)
MIC (Enterococcus faecium): 8 mg/L (≈ 8.15 µM)
MIC ([1]; -calcoaceticus complex): 16 mg/L (≈ 16.3 µM)
MIC (Escherichia coli): 16 mg/L (≈ 16.3 µM)
MIC (Streptococcus pneumoniae): 32 mg/L (≈ 32.6 µM)

CC[C@@H](C)[C@@H](NC(=O)[C@@H](CS)NC(=O)[C@@H](CCSC)NC(=O)[C@@H](CS)NC(=O)[C@@H](CCCNC(=N)N)NC(=O)[C@H](NC(=O)[C@H](NC(=O)[C@H](N)CCCNC(=N)N)[C@H](C)O)C(C)C)C(=O)O [P182 F, RTVRCMCI] (H-[dR][dT][dV][dR][dC][dM][dC][dI]-OH; N-terminus and C-terminus assumed)
MIC (Enterococcus faecalis): 8 mg/L (≈ 8.15 µM)
MIC (Enterococcus faecium): 8 mg/L (≈ 8.15 µM)
MIC ([1]; -calcoaceticus complex): 16 mg/L (≈ 16.3 µM)
MIC (Streptococcus pneumoniae): 32 mg/L (≈ 32.6 µM)

CC[C@@H](C)[C@@H](NC(=O)[C@@H](CS)NC(=O)[C@@H](CCCNC(=N)N)NC(=O)[C@@H](CS)NC(=O)[C@@H](CCCNC(=N)N)NC(=O)[C@H](NC(=O)[C@@H](Cc1ccc(O)cc1)NC(=O)[C@H](N)CCCNC(=N)N)C(C)C)C(=O)O [P194 A, RYVRCRCI] (H-[dR][dY][dV][dR][dC][dR][dC][dI]-OH; N-terminus and C-terminus assumed)
MIC (Enterococcus faecalis): 4 mg/L (≈ 3.74 µM)
MIC50 (Enterococcus faecalis): 2 mg/L (≈ 1.87 µM)
MIC (Enterococcus faecium): 2 mg/L (≈ 1.87 µM)
MIC50 (Enterococcus faecium): 1 mg/L (≈ 0.936 µM)
MIC50 ([1]; -calcoaceticus complex): 4 mg/L (≈ 3.74 µM)
MIC50 (Escherichia coli): 8 mg/L (≈ 7.49 µM)
MIC50 ([2]; species complex): 16 mg/L (≈ 15 µM)
MIC50 (Pseudomonas aeruginosa): 32 mg/L (≈ 30 µM)
MIC50 (Streptococcus pneumoniae): 32 mg/L (≈ 30 µM)
MIC (Staphylococcus aureus): 32 mg/L (≈ 30 µM)
MIC50 (Staphylococcus aureus): 32 mg/L (≈ 30 µM)
MIC50 (Klebsiella pneumoniae [4]): 4 mg/L (≈ 3.74 µM)

CC[C@@H](C)[C@@H](NC(=O)[C@@H](CS)NC(=O)[C@@H](CCCNC(=N)N)NC(=O)[C@@H](CS)NC(=O)[C@@H](CCCNC(=N)N)NC(=O)[C@H](NC(=O)[C@@H](Cc1ccc(O)cc1)NC(=O)[C@H](N)CCCNC(=N)N)C(C)C)C(=O)O [P194 F, RYVRCRCI] (H-[dR][dY][dV][dR][dC][dR][dC][dI]-OH; N-terminus and C-terminus assumed)
MIC (Enterococcus faecalis): 8 mg/L (≈ 7.49 µM)
MIC (Enterococcus faecium): 4 mg/L (≈ 3.74 µM)
MIC (Streptococcus pneumoniae): 32 mg/L (≈ 30 µM)

ATVRCTCI [Peptide D8-R1A]
MIC50 fold change (Enterococcus faecalis; relative to D8-acetate): 2
MIC50 fold change (Enterococcus faecium; relative to D8-acetate): 2
MIC50 fold change ([1]; relative to D8-acetate): 4
MIC50 fold change (Escherichia coli; relative to D8-acetate): 4
MIC50 fold change ([2]; relative to D8-acetate): 2
MIC50 fold change (Pseudomonas aeruginosa; relative to D8-acetate): 2
MIC50 fold change (Klebsiella pneumoniae [4]; relative to D8-acetate): 4

AYVRCRCI [Peptide P194-R1A]
MIC50 fold change (Enterococcus faecalis; relative to P194-acetate): 1
MIC50 fold change (Enterococcus faecium; relative to P194-acetate): 2
MIC50 fold change ([1]; relative to P194-acetate): 1
MIC50 fold change (Escherichia coli; relative to P194-acetate): 0.5
MIC50 fold change ([2]; relative to P194-acetate): 0.5
MIC50 fold change (Pseudomonas aeruginosa; relative to P194-acetate): 1
MIC50 fold change (Streptococcus pneumoniae; relative to P194-acetate, Streptococcus pneumoniae (5 isolates)): 1
MIC50 fold change (Staphylococcus aureus; relative to P194-acetate, Staphylococcus aureus (5 isolates)): 0.5
MIC50 fold change (Klebsiella pneumoniae [4]; relative to P194-acetate): 1
